Counter-ions that a name gives are not always drawn.
Target: interaction between p53 and MDM2 proteins (recombinant GST-tagged MDM2 / biotinylated p53-peptide) (Homo sapiens, UniProt Q00987)
Assay: HTRF assay of inhibition of the p53-MDM2 interaction (In Vitro Activity Assay)
Type: binding
Experimental: The ability of the compounds to inhibit the interaction between p53 and MDM2 proteins was measured by an HTRF (homogeneous time-resolved fluorescence) assay in which recombinant GST-tagged MDM2 binds to a peptide that resembles the MDM2-interacting region of p53 (Lane et al.). Binding of GST-MDM2 protein and p53-peptide (biotinylated on its N-terminal end) is registered by the FRET (fluorescence resonance energy transfer) between Europium (Eu)-labeled anti-GST antibody and streptavidin-conjugated Allophycocyanin (APC). Test is performed in black flat-bottom 384-well plates (Costar) in a total volume of 40 uL containing: 90 nM biotinylate peptide, 160 ng/ml GST-MDM2, 20 nM streptavidin-APC (PerkinElmerWallac), 2 nM Eu-labeled anti-GST-antibody (PerkinElmerWallac), 0.2% bovine serum albumin (BSA), 1 mM dithiothreitol (DTT) and 20 mM […] (TBS) buffer as follows: Add 10 uL of GST-MDM2 (640 ng/ml working solution) in reaction buffer to each well. Add 10 uL dilution compounds (1:5 dilution in reaction buffer) to each well, mix by shaking, Add 20 uL biotinylated p53 peptide (180 nM working solution) in reaction buffer to each well and mix on shaker. Incubate at 37° C. for 1 h. Add 20 uL streptavidin-APC and Eu-anti-GST antibody mixture (6 nM Eu-anti-GST and 60 nM streptavidin-APC working solution) in TBS buffer with 0.2% BSA, shake at room temperature for 30 minutes and read using a TRF-capable plate reader at 665 and 615 nm (Victor 5, Perkin ElmerWallac). If not specified, the reagents were purchased from Sigma Chemical Co.

Chain of interaction between p53 and MDM2 proteins (recombinant GST-tagged MDM2 / biotinylated p53-peptide) (Q00987 whole entry): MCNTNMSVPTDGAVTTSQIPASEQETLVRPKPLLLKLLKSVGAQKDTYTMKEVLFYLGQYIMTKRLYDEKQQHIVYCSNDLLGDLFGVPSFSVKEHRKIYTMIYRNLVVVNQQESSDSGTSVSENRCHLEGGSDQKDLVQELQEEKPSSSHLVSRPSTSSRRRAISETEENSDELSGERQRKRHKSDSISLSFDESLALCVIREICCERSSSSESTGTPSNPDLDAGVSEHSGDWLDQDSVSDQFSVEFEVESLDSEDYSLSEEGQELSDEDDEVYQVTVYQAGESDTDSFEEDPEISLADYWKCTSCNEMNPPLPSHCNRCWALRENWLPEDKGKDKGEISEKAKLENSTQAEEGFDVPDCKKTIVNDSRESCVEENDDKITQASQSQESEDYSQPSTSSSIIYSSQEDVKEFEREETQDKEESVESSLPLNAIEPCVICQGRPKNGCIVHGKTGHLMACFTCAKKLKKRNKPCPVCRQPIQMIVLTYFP

IC50 [nM]	Compound
60	CCOc1cc(C(C)(C)C)ccc1C1=N[C@@H](c2ccc(F)cc2)[C@@H](c2ccc(F)cc2)N1C(=O)N1CCN(CCS(C)(=O)=O)CC1 [Example 26, [(4S,5R)-2-(4-tert-Butyl-2-ethoxy-phenyl)-4,5-bis-(4-fluoro-phenyl)-4,5-dihydro-imidazol-1-yl]-[4-(2-methanesulfonyl-ethyl)-piperazin-1-yl]-methanone hydrochloride]
3100	CCOc1cc(C(C)(C)C)ccc1C1=N[C@@H](c2ccc(F)cc2)[C@@H](c2ccc(F)cc2)N1C(=O)N1CCNC(=O)C1 [Example 27, 4-[(4S,5R)-2-(4-tert-Butyl-2-ethoxy-phenyl)-4,5-bis-(4-fluoro-phenyl)-4,5-dihydro-imidazole-1-carbonyl]-piperazin-2-one hydrochloride]
11	C#Cc1ccc([C@@H]2[C@H](c3ccc(C#C)cc3)N=C(c3ccc(C(C)(C)C)cc3OCC)N2C(=O)N2CCN(CCS(C)(=O)=O)CC2)cc1 [Example 35, [(4S,5R)-2-(4-tert-Butyl-2-ethoxy-phenyl)-4,5-bis-(4-ethynyl-phenyl)-4,5-dihydro-imidazol-1-yl]-[4-(2-methanesulfonyl-ethyl)-piperazin-1-yl]-methanone hydrochloride]
24	CCOc1cc(C(C)(C)C)ccc1C1=N[C@@H](c2ccc(Cl)cc2)[C@@H](c2ccc(Cl)cc2)N1C(=O)N1CCC(N2CCCC2)CC1 [Example 74, [(4S,5R)-2-(4-tert-Butyl-2-ethoxy-phenyl)-4,5-bis-(4-chloro-phenyl)-4,5-dihydro-imidazol-1-yl]-(4-pyrrolidin-1-yl-piperidin-1-yl)-methanone hydrochloride]

Reference: patent US7964724B2, “Chiral cis-imidazolines” (Hoffmann-La Roche Inc., priority 2004, dated 2011)
